Key:
Format in all cases: cell-based
[1] = test system: HTT mRNA; experiment: Gene panel canonical junction qPCR assay, decrease in CJ mRNA, Table 3; conditions: decrease in canonical junction (CJ) mRNA, gene panel qPCR, Table 3
Method in brief: (§1)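 A673 (DMEM, 10% FBS, 15,000 cells/well) or K562 (IMDM, 10% FBS) cells treated 24 h at 37 °C with 11-point 3-fold dilutions, top 10 uM, DMSO ≤0.25%. Canonical exon-exon junction mRNA measured by RT-qPCR, normalized to GAPDH, GUSB or PPIA and DMSO (ΔΔCt); IC50 from 4-parameter logistic fit.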

[2] = test system: MYB mRNA; experiment: as above; conditions: decrease in canonical junction (CJ) mRNA, gene panel qPCR, Table 3
Method in brief: as §1

[3] = test system: MYB mRNA; experiment: Splicing RT-qPCR assay (THP), Table 2A; conditions: Table 2A (THP); for AC50: AJ mRNA increase, read-out: MYB AJ (increase in alternative junction mRNA, AC50); for IC50: CJ mRNA decrease, read-out: MYB CJ (decrease in canonical junction mRNA, IC50)
[4] = test system: HTT mRNA; experiment: Splicing RT-qPCR assay (THP), Table 2A; conditions: Table 2A (THP); for AC50: AJ mRNA increase, read-out: HTT AJ (increase in alternative junction mRNA, AC50); for IC50: CJ mRNA decrease, read-out: HTT CJ (decrease in canonical junction mRNA, IC50)
[5] = test system: SH-SY5Y (human neuroblastoma) cells; experiment: Cell viability, Cell Titer Glo 2.0 assay; conditions: read-out: Viability SHSY5Y.3 GI50
Method in brief: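 Toxicity screen in SH-SY5Y cells. Compounds were serially diluted in DMSO and then in medium, giving 0.1% DMSO final. Viability was read with CellTiter-Glo 2.0 after 72 h at 37 °C, 5% CO2, against medium-only blank wells.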

Row | SMILES | IC50 [1] [nM] | IC50 [2] [nM] | AC50 [3] [nM] | IC50 [3] [nM] | AC50 [4] [nM] | IC50 [4] [nM] | GI50 [5] [nM]
1 | CCNC1CCN(c2cc(F)c(C(=O)Nc3cn4ccncc4n3)c3nn(C)cc23)CC1 [Compound 381, 4-[4-(ethylamino)-1-piper-idyl]-6-fluoro-N-imidazo [1,2-a]-pyrazin-2-yl-2-methyl-indazole-7-carboxamide] | 1000 to 10000 | 1000 to 10000 | 1000 to 10000 | 1000 to 10000 | 1000 to 10000 | 1000 to 10000 | 1000 to 10000
2 | Cc1cn2cc(NC(=O)c3c(F)cc(N4CCC(NC5CC5)CC4)c4cn(C)nc34)c(OC3CC3)c(F)c2n1 [Compound 382, N-[7-(cyclopropoxy)-8-fluoro-2-methyl-imidazo [1,2-a]-pyridin-6-yl]-4-[4-(cyclopropylamino)-1-piperidyl]-6-fluoro-2-methyl-indazole-7-carboxamide] | < 100 | < 100 | < 100 | < 100 | < 100 | < 100 | < 100
3 | CCNC1CCN(c2cc(F)c(C(=O)Nc3cn4cc(CF)nc(C)c4n3)c3nn(C)cc23)CC1 [Compound 383, 4-(4-(ethylamino)piperidin-1-yl)-6-fluoro-N-(6-(fluoromethyl)-8-methylimidazo[1,2-a]-pyrazin-2-yl)-2-methyl-2H-indazole-7-carboxamide 2,2,2-trifluoroacetate] | > 10000 | < 100 | < 100 | < 100 | 100 to 1000 | > 10000 | 1000 to 10000
4 | CCNC1CCN(c2cc(F)c(C(=O)Nc3cn4ccnc(C)c4n3)c3nn(C)cc23)CC1 [Compound 384, 4-[4-(ethylamino)-1-piperidyl]-6-fluoro-2-methyl-N-(8-methyl-imidazo[1,2-a]-pyrazin-2-yl)-indazole-7-carbox-amide] | > 10000 | > 10000 | > 10000 | > 10000 | > 10000 | > 10000 | > 10000
5 | CCNC1CCN(c2ccc(C(=O)Nc3cc(OC)c4nc(C)sc4c3)c3nn(C)cc23)CC1 [Compound 385, 4-[4-(ethylamino)-1-piperidyl]-N-(4-methoxy-2-methyl-1,3-benzothiazol-6-yl)-2-methyl-indazole-7-carboxamide 2,2,2-trifluoroacetate] | > 10000 | > 10000 | 100 to 1000 | > 10000 | 1000 to 10000 | > 10000 | 1000 to 10000
6 | Cc1cn2cc(NC(=O)c3c(F)cc(N4CCC(NC5CC5)CC4)c4cn(C)nc34)cc(Oc3ccnnc3)c2n1 [Compound 386, 4-[4-(cyclopropylamino)-1-piperidyl]-6-fluoro-2-methyl-N-(2-methyl-8-pyridazin-4-yloxy-imidazo-[1,2-a]-pyridin-6-yl)indazole-7-carboxamide] | > 10000 | 100 to 1000 | 100 to 1000 | 100 to 1000 | 1000 to 10000 | > 10000 | > 10000
7 | CCNC1CCN(c2cc(F)c(C(=O)Nc3cc4cn(C)nc4cc3OC)c3nn(C)cc23)CC1 [Compound 387, 4-[4-(ethyl-amino)-1-piperidyl]-6-fluoro-N-(6-methoxy-2-methyl-indazol-5-yl)-2-methyl-indazole-7-carboxamide] | 100 to 1000 | < 100 | < 100 | < 100 | 100 to 1000 | 100 to 1000 | 1000 to 10000
8 | CCNC1CCN(c2ccc(C(=O)Nc3cc4cn(C)nc4cc3OC)c3nn(C)cc23)CC1 [Compound 388, 4-[4-(ethylamino)-1-piperidyl]-N-(6-methoxy-2-methyl-indazol-5-yl)-2-methyl-indazole-7-carboxamide] | 1000 to 10000 | 100 to 1000 | 100 to 1000 | 100 to 1000 | 1000 to 10000 | 1000 to 10000 | 1000 to 10000
9 | COc1c(NC(=O)c2c(F)cc(N3CCC(NC45CC(C4)C5)CC3)c3cn(C)nc23)cn2cc(C)nc2c1F [Compound 389, 4-[4-(1-bicyclo[1.1.1]pentanylamino)-1-piperidyl]-6-fluoro-N-(8-fluoro-7-methoxy-2-methylimidazo-[1,2-a]pyridin-6-yl)-2-methyl-indazole-7-carboxamide] | 100 to 1000 | < 100 | < 100 | < 100 | 100 to 1000 | 100 to 1000 | < 100
10 | CCNC1CCN(c2cc(F)c(C(=O)Nc3cn4cc(C)nc(C#N)c4n3)c3nn(C)cc23)CC1 [Compound 390, N-(8-cyano-6-methyl-imidazo[1,2-a]pyrazin-2-yl)-4-[4-(ethylamino)-1-piperidyl]-6-fluoro-2-methyl-indazole-7-carboxamide] | > 10000 | 100 to 1000 | < 100 | 100 to 1000 | > 10000 | > 10000 | 1000 to 10000
11 | CCNC1CCN(c2cc(F)c(C(=O)Nc3cn4cc(C)nc(Cl)c4n3)c3nn(C)cc23)CC1 [Compound 391, N-(8-chloro-6-methyl-imidazo[1,2-a]-pyrazin-2-yl)-4-[4-(ethylamino)-1-piperidyl]-6-fluoro-2-methyl-indazole-7-carboxamide] | > 10000 | < 100 | < 100 | < 100 | > 10000 | > 10000 | 100 to 1000
12 | Cc1cn2cc(NC(=O)c3c(F)cc(N4CCC(NC5CC5)CC4)c4cn(C)nc34)nc2c(CN)n1 [Compound 392, N-[8-(aminomethyl)-6-methyl-imidazo[1,2-a]-pyrazin-2-yl]-4-[4-(cyclopropylamino)-1-piperidyl]-6-fluoro-2-methyl-indazole-7-carboxamide] | > 10000 | 1000 to 10000 | 1000 to 10000 | 1000 to 10000 | > 10000 | > 10000 | > 10000
13 | Cc1cn2cc(NC(=O)c3c(F)cc(N4CCC(NC5CC5)CC4)c4cn(C)nc34)nc2c(CNS(C)(=O)=O)n1 [Compound 393, 4-(4-(cyclopropylamino)piperidin-1-yl)-6-fluoro-2-methyl-N-(6-methyl-8-(methylsulfonamidomethyl)imidazo[1,2-a]pyrazin-2-yl)-2H-indazole-7-carboxamide 2,2,2-trifluoroacetate] | > 10000 | 100 to 1000 | 100 to 1000 | 100 to 1000 | > 10000 | > 10000 | 1000 to 10000
14 | CCNC1CCN(c2ncc(C(=O)Nc3cn4cc(C)nc(C)c4n3)c3nn(C)cc23)CC1 [Compound 394, N-(6,8-dimethylimidazo[1,2-a]pyrazin-2-yl)-4-[4-(ethylamino)-1-piperidyl]-2-methyl-pyrazolo-[4,3-c]-pyridine-7-carboxamide] | 1000 to 10000 | 100 to 1000 | < 100 | 100 to 1000 | 1000 to 10000 | 1000 to 10000 | > 10000
15 | COc1cc2nc(C)cn2cc1NC(=O)c1c(F)cc(N2CCC(NC3CC3)CC2)c2cn(C)nc12 [Compound 395, 4-[4-(cyclopropylamino)-1-piperidyl]-6-fluoro-N-(7-methoxy-2-methyl-imidazo[1,2-a]pyridin-6-yl)-2-methyl-indazole-7-carboxamide] | > 10000 | 100 to 1000 | < 100 | 100 to 1000 | > 10000 | > 10000 | 100 to 1000

— patent US20260285853A1, “COMPOUNDS AND METHODS FOR MODULATING SPLICING” (REMIX THERAPEUTICS INC., priority 2023, published 2026)
